Source: patent publication US20250136722A1, “CYTOTOXICITY TARGETING CHIMERAS” (GLAXOSMITHKLINE INTELLECTUAL PROPERTY DEVELOPMENT LIMITED, priority 2021, published 2025)

Columns and labels:
CCR2+ expressing cells = test: Alternative dosing strategy of ARM compound to anti-cotinine antibody, blood concentration and CCR2+ cell depletion (Example 206); format: in vivo; settings: co-dosing vs sequential dosing with anti-cotinine antibody, intravenously
Source text: FIGS. 3A-3B: Alternative dosing strategy of small molecule ARM compound to anti-cotinine antibody, as described in Example 206, with anti-cotinine antibody and small molecule ARM compound (Example 1) co-dosed or sequentially dosed intravenously;
FIG. 5: Alternative dosing strategy of small molecule ARM compound to anti-cotinine antibody, as described in Example 206, with anti-cotinine antibody administered intravenously and ARM compound (Example 1) administered subcutaneously following a 2-hour delay from antibody dosing at various molar ratios of small molecule ARM: antibody; data shown is blood concentration of small molecule ARM compound at various timepoints following administration.

[1] = test system: endogenous target monocytes in human PBMC; test: PBMC ex vivo monocyte depletion flow cytometry assay (Example 200); format: cell-based; settings: with anti-cotinine antibody SEQ ID NO: 11/12, 18-24 hours, read-out: Ex Vivo Depletion Assay pEC50 (converted)
Protocol: A human PBMC (peripheral blood mononuclear cells) monocyte depletion flow cytometry assay was developed to screen compounds in a 384-well plate format. This assay incorporated endogenous natural killer cells to deplete endogenous target monocytes.
To screen compounds in the human PBMC monocyte depletion flow cytometry assay, 11-point dose-response curves were made from 1 mM stocks in neat DMSO by serially diluting an ARM compound of Formula (I) four-fold into a 384-well plate row-wise. These serially diluted compounds were then stamped into a flat bottom polypropylene 384-well plate (Greiner Bio-One) at 100 nL/well. Fifty microliters of 30 μg/mL anti-cotinine antibody having a heavy chain sequence of SEQ ID NO: 11 and a light chain sequence of SEQ ID NO: 12 (rabbit variable region with human IgG1 Fc domain containing a DE mutation (S239D/1332E)) that had been diluted in assay medium (RPMI 1640 (Gibco) containing 10% fetal bovine serum (Gibco), 1% Glutamax (Gibco) and 1% sodium pyruvate (Corning) was added to the wells of the plate. The plate was centrifuged for 1 min at 500 rpm (revolutions per minute) and then shaken for 5 min at room temperature. The plate was incubated for 15 minutes at 37° C./5% CO2.
Frozen PBMC cells (HemaCare BioResearch) were thawed and centrifuged at 1,200 rpm for 4 minutes. The cells were diluted to a cell density of 2×10^6 cells/mL in assay medium. Fifty microliters of the diluted cells were added to the wells of the plate. The plate was centrifuged for 1 min at 500 rpm and incubated for 18-24 hours at 37° C./5% CO2.
After 18-24 hours incubation, 2 μL of 6.25 μg human FC block (BD Pharmingen) that was diluted in assay medium was added to the wells of the plate. The plate was centrifuged for 1 minute at 500 rpm and then incubated at room temperature for 15 minutes. Five microliters of 750 nM Helix NP NIR (Biolegend) that had been diluted in assay medium was added to the wells of the plate. Nine microliters of antibody cocktail containing 1/5 diluted fluorescein isothiocyanate (FITC) labeled anti-CD45 antibody (Beckman Coulter), PC7 labeled anti-CD14 antibody (Beckman Coulter) and phycoerythrin (PE) anti-CD4 antibody (Beckman Coulter) was then added to the wells of the plate. The plate was centrifuged for 1 min at 500 rpm and incubated for 30 minutes at 4-8° C. Samples from the plate were run on BD FACS Canto II flow cytometer and data was analyzed using FlowJo software.
ARMs compounds of Formula (I) of the invention were tested for the ability to deplete monocytes in the above assay in one or more experimental runs and the results are shown in Table 3 below. Potency of the compounds of the invention is reported as a pEC50 value. The pEC50 value is the negative log of the EC50 value, wherein the EC50 value is the half maximal effective concentration measured in molar (M). For compounds tested in more than one experimental run, the pEC50 value is reported as an average or as the individual values measured

CC(C)N(C)[C@@H]1CC[C@H](N2CC[C@H](Nc3ncnc4ccc(C(F)(F)F)cc34)C2=O)[C@H](NC(=O)[C@H]2CC[C@H](NC(=O)CCCO[C@H]3CC[C@H](OCCNC(=O)[C@H]4CC(=O)N(C)[C@@H]4c4cccnc4)CC3)CC2)C1 [Example 1, (2S,3S)-N-(2-(((1R,4S)-4-(4-(((1R,4R)-4-(((1R,2S,5R)-5-(Isopropyl(methyl)amino)-2-((S)-2-oxo-3-((6-(trifluoromethyl)quinazolin-4-yl)amino)pyrrolidin-1-yl)cyclohexyl)carbamoyl)cyclohexyl)amino)-4-oxobutoxy)cyclohexyl)oxy)ethyl)-1-methyl-5-oxo-2-(pyridin-3-yl)pyrrolidine-3-carboxamide]
PD (percent depletion of CCR2+ expressing cells) (CCR2+ expressing cells): unchanged
PK (blood concentration of small molecule ARM compound) (CCR2+ expressing cells): unchanged

CN1C(=O)C[C@H](C(=O)NCCOCCOCCOCCOCCOCCC(=O)N[C@@H]2C[C@H](NC(C)(C)C)CC[C@@H]2N2CC[C@H](Nc3ncnc4ccc(C(F)(F)F)cc34)C2=O)[C@H]1c1cccnc1 [Example 37]
EC50 [1]: 5.01 nM

CN1C(=O)C[C@H](C(=O)NCCOCCOCCOCCOCCOCCOCCC(=O)N[C@@H]2C[C@H](NC(C)(C)C)CC[C@@H]2N2CC[C@H](Nc3ncnc4ccc(C(F)(F)F)cc34)C2=O)[C@H]1c1cccnc1 [Example 38]
EC50 [1]: 1.58 nM
